From patent US20220370416A1, “COMPOUNDS AND METHODS FOR TARGETED DEGRADATION OF KRAS” (Arvinas Operations, Inc., priority 2020, published 2022)

What was measured:
Assay type in all cases: cell-based
[1] = target: T1, KRAS^G12C (Homo sapiens, UniProt P01116, G12C); assay: KRAS^G12C engagement and degradation by immunoblot in NCI-H2030 cells; parameters: MRTX849-VHL bifunctional compounds engage and degrade endogenous KRAS^G12C in NCI-H2030 cells; endogenous in cells; host or cells: NCI-H2030, NCI-H358, MIA PaCa-2, SW1573, NCI-H23; settings: for rescue of LC-2 induced KRAS^G12C degradation by inhibitor: NCI-H2030, 1 μM inhibitor before 2.5 μM LC-2
Protocol: (§1) NCI-H2030 (CRL-5914), MIA PaCa-2 (CRL-1420), NCI-H23 (CRL-5800), NCI-H358 (CRL-5807), and HCT-116 (CCL-247) cells were obtained from ATCC, expanded immediately, and frozen down. Vials were thawed and used within 20 passages. SW1573 cells were a gift from Arvinas and were handled in the same manner. NCI-H2030, NCI-H23, and NCI-H358 were cultured in RPMI (ATCC30-2001) supplemented with 10% FBS (Biological Industries; cat. no. S1480) and 1% Penicillin-Streptomycin (ThermoFisher; cat. no. 15140122). HCT-116 cells were maintained in high glucose DMEM (ThermoFisher; cat. no. 11965084) supplemented as above. MIA PaCa-2 cells were cultured in high glucose DMEM supplemented with 10% FBS, 2.5% horse serum (ThermoFisher; cat. no. 26050-088; lot 2109875), and 1% Penicillin-Streptomycin. SW1573 cells were maintained in DMEM/F12 Nutrient Mix with GlutaMAX supplement (ThermoFisher; cat. no. 10565018) with 10% FBS and 1% Penicillin-Streptomycin added. DPBS (ThermoFisher; cat. no. 14190250) was used to wash cells and 0.25% Trypsin-EDTA (ThermoFisher; cat. no. […]) was used to detach cells for passaging. […] The VHL ligand was generously provided by Arvinas.
(§2) Between 2.5×10^5 and 6.0×10^5 cells were seeded into 6-well plates (Corning; cat. no. 353046). The next day, media was removed and cells were treated with 2.5 μM LC-2 for 1, 2, 4, 8, 12, or 24 hours. […] For 24-hour time course experiments, cells were treated at the indicated times and concurrently lysed in RIPA buffer supplemented as described previously. For longer time course experiments and time courses in which cells were treated with LC-2 or LC-2 Epimer, cells were concurrently treated with either compound, then lysed by scraping in RIPA buffer at the indicated time points.
(§3) Between 2.5×10^5 and 5.0×10^5 cells were seeded into 6-well plates. The next day cells were pretreated with DMSO, 500 μM or 1 mM VHL ligand, 1 μM epoxomicin, 1 μM […], or 100 nM […] bafilomycin A1 for 1 hour. Media was then removed and cells were treated with DMSO, 2.5 μM LC-2 plus DMSO, 2.5 μM LC-2 Epimer plus DMSO, or co-treated with 2.5 μM LC-2 and the corresponding competitor/inhibitor. H2030 cells were treated for 4 hours and H23 cells were treated for 24 hours, after which cells were lysed by scraping in RIPA buffer supplemented as described previously.
(§4) Cell lysates were clarified at 21000×g for 15 mins at 4° C. Protein levels were quantified using a 50:1 mixture of bicinchoninic acid solution (Millipore Sigma; cat. no. B9643) and 4% (w/v) copper(II) sulfate solution (Millipore Sigma; cat. no. C2284) incubated at 37° C. for 30 mins. Absorbance values at 560 nm were read on an EnVision 2101 Multilabel Reader (PerkinElmer). Proteins were separated using 26 well Criterion TGX precast 4-15% (cat. no. 5671085) or 8-16% (cat. no. 5671105) gradient midi gels. After separation, proteins were transferred to nitrocellulose or PVDF membranes at 76 V for 2 hours at 4° C. Blots were then blocked in 5% milk in tris-buffered saline with Tween-20 (TBST; 20 mM Tris, 150 mM NaCl, 0.02% Tween-20). After blocking, blots were incubated in primary antibody overnight (12-18 hours) at 4° C. or for 2 hours at room temperature with mild agitation at the manufacturer's indicated dilution in either 5% milk or 5% BSA in TBST. Blots were then washed thrice with TBST for 5 mins at room temperature. After washing, blots were incubated with 1:5,000-1:10,000 of donkey anti-rabbit (GE Life Sciences; NA934) or sheep anti-mouse (GE Life Sciences; NA931) secondary antibody diluted in 5% milk for 1 hour at room temperature with mild agitation. Blots were again washed thrice with TBST for 5 mins. Chemiluminescent signal was generated using Amersham ECL Prime Western Blotting Detection Reagant (GE Life Sciences; cat. no. RPN2232) or SuperSignal West Femto Maximum Sensitivity Substrate (ThermoFisher; cat. no. 34095). Images were obtained using a Bio-Rad ChemiDoc Imager.

[2] = target: T1, KRAS^G12C; assay: Engagement and degradation of endogenous KRAS^G12C in NCI-H2030 cells (blot quantitation); parameters: MRTX849-VHL bifunctional compounds engage and degrade endogenous KRAS^G12C in NCI-H2030 cells; endogenous in cells; host or cells: NCI-H2030; settings: dose response (FIG. 2B)
[3] = target: T1, KRAS^G12C; assay: KRAS^G12C degradation by immunoblot in NCI-H23 cells; parameters: MRTX849-VHL bifunctional compounds engage and degrade endogenous KRAS^G12C in NCI-H2030 cells; endogenous in cells; host or cells: NCI-H2030, NCI-H358, MIA PaCa-2, SW1573, NCI-H23; settings: for KRAS, two-way ANOVA significance vs DMSO: FIG. 9B
Protocol: as §1, §2, §3, §4

## NS(=O)(=O)OC[C@@H]1C[C@@H](n2ccc3c(N[C@H]4CCc5ccccc54)ncnc32)C[C@@H]1O [MLN924, reference compound]
[1]
  rescue of LC-2 induced KRAS^G12C degradation by inhibitor: rescued KRAS^G12C levels

## C=C(F)C(=O)N1CCN(c2nc(OC[C@@H]3CCCN3CCC(=O)NCCOCCOCCC(=O)N[C@H](C(=O)N3C[C@H](O)C[C@H]3C(=O)NCc3ccc(-c4scnc4C)cc3)C(C)(C)C)nc3c2CCN(c2cccc4cccc(Cl)c24)C3)C[C@@H]1CC#N [LC-1, (2S,4R)-1-((S)-2-(tert-butyl)-16-((S)-2-(((7-(8-chloronaphthalen-1-yl)-4-((S)-3-(cyanomethyl)-4-(2-fluoroacryloyl)piperazin-1-yl)-5,6,7,8-tetrahydropyrido[3,4-d]pyrimidin-2-yl)oxy)methyl)pyrrolidin-1-yl)-4,14-dioxo-7,10-dioxa-3,13-diazahexadecanoyl)-4-hydroxy-N-(4-(4-methylthiazol-5-yl)benzyl)pyrrolidine-2-carboxamide]
[2]
  engagement of KRAS^G12C: engages KRAS^G12C in a dose dependent manner
[1]; 10 μM, compound screen (FIG. 2C)
  effect on KRAS protein levels: increased KRAS protein levels
[1]; NCI-H2030, 10 μM, FIG. 9A
  KRAS, two-way ANOVA significance vs DMSO: * (* p < 0.05)
[1]; NCI-H2030, 24 hours, at 1, 2.5, 10, and 25 μM
  KRAS engagement (band shift): clear band shift
[1]; NCI-H2030, 24 hours, increasing concentrations
  reduction in KRAS levels: small, non-significant reduction
[3]; NCI-H23, 0.1 μM
  KRAS, two-way ANOVA significance vs DMSO: N.S.
[3]; NCI-H23, 10 μM
  KRAS, two-way ANOVA significance vs DMSO: N.S.

## CC[C@H](C)[C@H](NC(=O)[C@H]([C@@H](C)CC)N(C)C(C)=O)C(=O)N[C@H](C(=O)N[C@@H](CC(C)C)C(=O)[C@@]1(C)CO1)[C@@H](C)O [epoxomicin, reference compound]
[1]
  rescue of LC-2 induced KRAS^G12C degradation by inhibitor: rescued KRAS^G12C levels

## CO/C1=C\C(C)=C\[C@@H](C)[C@@H](O)[C@@H](C)C/C(C)=C/C=C/[C@H](OC)[C@@H]([C@@H](C)[C@@H](O)[C@H](C)[C@@]2(O)C[C@@H](O)[C@H](C)[C@@H](C(C)C)O2)OC1=O [BafA1, bafilomycin A1, reference compound]
[3]; NCI-H23, pre-treatment before LC-2
  rescue of LC-2 induced KRAS^G12C degradation by inhibitor: unable to rescue
